This is an account of results in ChEMBL document CHEMBL3217670, “Structures and biofilm inhibition activities of brominated furanones for Escherichia coli and Pseudomonas aeruginosa” (Medchemcomm, 2013).

In general, inhibition refers to the share of the control response that was lost under treatment.

Active and inactive are the calls of the source. The calls are words filed in the database; no cut-off is given here.

Series [1] relates to Escherichia coli. Put plainly: Antimicrobial activity against wild-type Escherichia coli RP437 assessed as inhibition of planktonic growth at 1 to 100 uM measured for 2 to 24 hrs. Format: organism-based. Conditions: in vivo.
The test system of series [2] is Pseudomonas aeruginosa. The experiment in a line: Antimicrobial activity against wild-type Pseudomonas aeruginosa PAO1 assessed as inhibition of planktonic growth at 200 uM measured for 2 to 24 hrs. Conditions: in vivo. The series is classed as organism-based.
Series [3] has as its system Escherichia coli. The experiment in a line: Inhibition of biofilm formation in wild-type Escherichia coli RP437 at 100 uM. The series is classed as functional, organism-based.
Series [4] has as its system Escherichia coli. The experiment in a line: Antimicrobial activity against sdiA-knockout Escherichia coli AY1297 assessed as inhibition of planktonic growth at 200 uM measured for 2 to 24 hrs. Format: organism-based. Conditions: in vivo.
The subject of series [5] is Escherichia coli. The experiment in a line: Antimicrobial activity against wild-type Escherichia coli RP437 assessed as inhibition of planktonic growth at 200 uM measured for 2 to 24 hrs. The series is classed as organism-based. Conditions: in vivo.
Series [6] has as its system Pseudomonas aeruginosa. Put plainly: Antimicrobial activity against wild-type Pseudomonas aeruginosa PAO1 assessed as inhibition of planktonic growth at 1 to 100 uM measured for 2 to 24 hrs. Format: organism-based. Conditions: in vivo.
In series [7] the test system is Pseudomonas aeruginosa. Put plainly: Inhibition of biofilm formation in wild-type Pseudomonas aeruginosa PAO1 at 100 uM. The series is classed as functional, organism-based.
Series [8] has as its system Pseudomonas aeruginosa. Put plainly: Antimicrobial activity against wild-type Pseudomonas aeruginosa PAO1 assessed as inhibition of planktonic growth at 100 uM measured for 2 to 24 hrs. The series is classed as organism-based. Conditions: in vivo.
In series [9] the test system is Pseudomonas aeruginosa. The experiment in a line: Inhibition of biofilm formation in wild-type Pseudomonas aeruginosa PAO1 at 50 uM. The series is classed as functional, organism-based.
Series [10] concerns the target T1, Transcriptional activator protein LasR (Pseudomonas aeruginosa (strain ATCC 15692 / PAO1 / 1C / PRS 101 / LMG12228)) (UniProt P25084).
T1 sequence (whole entry): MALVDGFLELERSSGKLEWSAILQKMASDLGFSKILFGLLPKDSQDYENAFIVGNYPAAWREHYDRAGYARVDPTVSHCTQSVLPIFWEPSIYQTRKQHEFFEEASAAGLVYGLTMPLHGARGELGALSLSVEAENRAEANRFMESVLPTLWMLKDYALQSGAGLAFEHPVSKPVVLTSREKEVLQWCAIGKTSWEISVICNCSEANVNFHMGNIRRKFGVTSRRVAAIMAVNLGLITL
The experiment in a line: Antagonist activity at Pseudomonas aeruginosa PAO1 LasR expressing lasI coexpressing LVA-GFP at 100 to 200 uM after 24 hrs by fluorescence assay.

Series [11] concerns Pseudomonas aeruginosa. The experiment in a line: Inhibition of biofilm formation in wild-type Pseudomonas aeruginosa PAO1 at 200 uM after 24 hrs by crystal violet staining-based assay relative to control. The series is classed as functional.
The subject of series [12] is Escherichia coli. The experiment in a line: Inhibition of biofilm formation in wild-type Escherichia coli RP437 at 200 uM after 24 hrs by crystal violet staining-based assay relative to control. The series is classed as functional.
Series [13] concerns Pseudomonas aeruginosa. Put plainly: Antimicrobial activity against wild-type Pseudomonas aeruginosa PAO1 assessed as inhibition of planktonic growth at 300 uM measured for 2 to 24 hrs. The series is classed as organism-based. Conditions: in vivo.
The target in series [14] is T2, HTH-type quorum-sensing regulator RhlR (Pseudomonas aeruginosa (strain ATCC 15692 / PAO1 / 1C / PRS 101 / LMG12228)) (UniProt P54292).
T2 sequence (whole entry): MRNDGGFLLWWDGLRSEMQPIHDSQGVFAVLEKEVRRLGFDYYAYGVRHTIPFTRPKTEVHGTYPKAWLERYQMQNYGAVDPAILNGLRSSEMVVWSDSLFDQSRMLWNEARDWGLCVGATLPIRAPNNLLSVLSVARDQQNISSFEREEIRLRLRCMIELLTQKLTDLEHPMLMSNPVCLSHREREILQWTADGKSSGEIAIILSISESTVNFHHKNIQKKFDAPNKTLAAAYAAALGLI
Put plainly: Agonist activity at Pseudomonas aeruginosa PAO1 RhlR expressing rhlI coexpressing LVA-GFP at 100 to 200 uM after 24 hrs by fluorescence assay.

Series [15] concerns Escherichia coli. The experiment in a line: Inhibition of biofilm formation in sdiA-knockout Escherichia coli AY1297 at 200 uM after 24 hrs by crystal violet staining-based assay relative to control. The series is classed as functional.
Series [16] concerns Escherichia coli. Put plainly: Antimicrobial activity against sdiA-knockout Escherichia coli AY1297 assessed as inhibition of planktonic growth at 300 uM measured for 2 to 24 hrs. Format: organism-based. Conditions: in vivo.
In series [17] the test system is Pseudomonas aeruginosa. Put plainly: Inhibition of biofilm formation in wild-type Pseudomonas aeruginosa PAO1 expressing red fluorescent protein assessed as effect on thickness of biofilm at 200 uM after 24 hrs by confocal laser scanning microscopic analysis. The series is classed as functional, organism-based.
Series [18] has as its system Pseudomonas aeruginosa. Put plainly: Inhibition of biofilm formation in wild-type Pseudomonas aeruginosa PAO1 expressing red fluorescent protein assessed as effect on surface area of biofilm at 200 uM after 24 hrs by confocal laser scanning microscopic analysis. Format: functional, organism-based.
The subject of series [19] is Escherichia coli. The experiment in a line: Inhibition of biofilm formation in wild-type Escherichia coli RP437 at 300 uM after 24 hrs by crystal violet staining-based assay relative to control. The series is classed as functional. Conditions: RP437, 24 h.
Series [20] concerns Escherichia coli. Put plainly: Antimicrobial activity against wild-type Escherichia coli RP437 assessed as inhibition of planktonic growth at 300 uM measured for 2 to 24 hrs. Conditions: in vivo. The series is classed as organism-based.
Series [21] concerns Escherichia coli. The experiment in a line: Inhibition of biofilm formation in sdiA-knockout Escherichia coli AY1297 at 300 uM after 24 hrs by crystal violet staining-based assay relative to control. The series is classed as functional. Conditions: AY1297, 24 h.
Series [22] deals with Pseudomonas aeruginosa PAO1. Put plainly: Inhibition of quorum sensing system-mediated elastase B production in Pseudomonas aeruginosa PAO1 at 200 uM after 24 hrs by colorimetric assay relative to control.
In series [23] the test system is Escherichia coli. Put plainly: Ratio of inhibition of biofilm formation in sdiA-knockout Escherichia coli AY1297 to inhibition of biofilm formation in wild-type Escherichia coli RP437. Format: functional.
For series [24], the system named is Pseudomonas aeruginosa. Put plainly: Inhibition of biofilm formation in wild-type Pseudomonas aeruginosa PAO1 expressing red fluorescent protein assessed as reduction in biomass at 200 uM after 24 hrs by confocal laser scanning microscopic analysis relative to control. The series is classed as functional.
Series [25] has as its system Escherichia coli. The experiment in a line: Inhibition of biofilm formation in sdiA-knockout Escherichia coli AY1297 expressing red fluorescent protein assessed as reduction in biomass at 200 uM after 24 hrs by confocal laser scanning microscopic analysis relative to control. The series is classed as functional. Conditions: AY1297, 24 h.
The test system of series [26] is Escherichia coli. The experiment in a line: Inhibition of biofilm formation in wild-type Escherichia coli RP437 at 200 uM after 24 hrs by scanning electron microscopic analysis. The series is classed as functional, organism-based.
Series [27] deals with Escherichia coli. Put plainly: Inhibition of biofilm formation in wild-type Escherichia coli RP437 expressing red fluorescent protein assessed as effect on surface area of biofilm at 200 uM after 24 hrs by confocal laser scanning microscopic analysis. The series is classed as functional, organism-based.
Series [28] relates to Escherichia coli. Put plainly: Inhibition of biofilm formation in wild-type Escherichia coli RP437 expressing red fluorescent protein assessed as reduction in biomass at 200 uM after 24 hrs by confocal laser scanning microscopic analysis relative to control. The series is classed as functional. Conditions: RP437, 24 h.
Series [29] has as its system Escherichia coli. Put plainly: Inhibition of biofilm formation in sdiA-knockout Escherichia coli AY1297 expressing red fluorescent protein assessed as effect on surface area of biofilm at 200 uM after 24 hrs by confocal laser scanning microscopic analysis. Format: functional, organism-based.
Series [30] deals with Escherichia coli. Put plainly: Inhibition of biofilm formation in sdiA-knockout Escherichia coli AY1297 expressing red fluorescent protein assessed as thickness of biofilm at 200 uM after 24 hrs by confocal laser scanning microscopic analysis (reference value: 157 micrometer). The series is classed as functional.
The test system of series [31] is Escherichia coli. The experiment in a line: Inhibition of biofilm formation in wild-type Escherichia coli RP437 expressing red fluorescent protein assessed as thickness of biofilm at 200 uM after 24 hrs by confocal laser scanning microscopic analysis (reference value: 253 micrometer). Format: functional.
Series [32] concerns Escherichia coli. Put plainly: Inhibition of biofilm formation in sdiA-knockout Escherichia coli AY1297 at 200 uM after 24 hrs by scanning electron microscopic analysis. Format: functional, organism-based.

Take `O=C1C=C(Br)/C(=C/Br)O1`: the Activity entry in the series on Escherichia coli [1] and in the series on Pseudomonas aeruginosa [6] was “Non-toxic” throughout. Further, the entries for the “growth inhibition (GI)” value in the series with Pseudomonas aeruginosa [2], with Escherichia coli [4] and with Escherichia coli [5] were “Non-toxic”, “Toxic” and “Toxic”, respectively. The inhibition entry with Escherichia coli [3] and in the series on Pseudomonas aeruginosa [7] was “inactive” each time.
For the compound `O=C1C=C/C(=C/Br)O1`, the results for the Activity entry in the series with Escherichia coli [1] and with Pseudomonas aeruginosa [8] were “Non-toxic” and “Toxic”, respectively. The “growth inhibition (GI)” value was “Toxic” with Pseudomonas aeruginosa [2], “Non-toxic” with Escherichia coli [4] and “Toxic” in the series with Escherichia coli [5]. For the same compound, the inhibition entry in the series with Escherichia coli [3] and in the series with Pseudomonas aeruginosa [9] was “inactive” each time.
As to `C/C(Br)=C1\C=CC(=O)O1`, the inhibition result in [10] is “Active”. For the same compound, the inhibition entry in the series on Pseudomonas aeruginosa [11], in the series with Escherichia coli [12], with Escherichia coli [15], with Pseudomonas aeruginosa [17], in the series with Pseudomonas aeruginosa [18] and in the series with Pseudomonas aeruginosa [24] was “inactive” in each case. Besides, the “growth inhibition (GI)” value in the series on Pseudomonas aeruginosa [13], in the series on Escherichia coli [16] and in the series with Escherichia coli [20] was “Non-toxic” in each case. Besides, the result in series [14] was Active. Moreover, the inhibition at 300 µM came to 34% in the series with Escherichia coli [19] and 26% in the series on Escherichia coli [21]. In series [22], this compound showed an inhibition of 41%. Also, the Ratio with Escherichia coli [23] is reported as 2.
Take `CC1=C(Br)/C(=C\Br)OC1=O`: the inhibition at 200 µM in the series with Escherichia coli [25] stood at 36%; in the series with Pseudomonas aeruginosa [11] (PAO1, 24 h) it was 43%; in the series on Escherichia coli [12] (RP437, 24 h), 50%; in the series on Escherichia coli [15] (AY1297, 24 h), 18%; in the series on Escherichia coli [28], 53%; in the series on Pseudomonas aeruginosa [24] (PAO1, 24 h), 41%. The inhibition entry (in series [10]; in the series on Escherichia coli [26]; in the series on Escherichia coli [27]; with Escherichia coli [29]) was “Active” throughout. The “growth inhibition (GI)” value in the series with Pseudomonas aeruginosa [2], in the series with Escherichia coli [4] and in the series with Escherichia coli [5] was “Non-toxic” each time. Moreover, the outcome in [14] was Active. For the same compound, the figures for the Activity in the series with Escherichia coli [30] and in the series with Escherichia coli [31] were 137 um and 126 um, respectively. In addition, the inhibition in [22] is 43%. Besides, the inhibition entry with Escherichia coli [32] was “inactive”. For the same compound, the Ratio in the series with Escherichia coli [23] is 2.
